{"source": "patent US20240335418A1", "about": "“SAFER PSYCHOACTIVE COMPOSITIONS” (Arcadia Medicine, Inc., priority 2021, published 2024)", "key": {"[1]": {"conditions": "dog, female and male, p.o.; cited from earlier work"}, "[2]": {"conditions": "cited from earlier work"}, "[3]": {"test": "Human Equivalent Dose (HED) of NOAEL", "conditions": "for Human Equivalent Dose (HED): NOAEL (human), total dose / Human Equivalent Dose (HED): Neurotoxicology NOAEL (human), total dose: assuming a 60 kg human; for NOAEL: human, po"}, "[4]": {"conditions": "rat, cited from earlier work"}, "[5]": {"system": "serotonergic presynaptic markers", "conditions": "primate study; cited from earlier work"}, "[6]": {"conditions": "mouse; cited from earlier work"}, "[7]": {"conditions": "dog, p.o.; cited from earlier work"}, "[8]": {"conditions": "p.o. in rat (SR(±)MDMA: with single housing); cited from earlier work"}, "[9]": {"conditions": "cited from earlier work", "remark": "listed apart in the source"}, "[10]": {"test": "Subjective report: physiological and subjective effects after oral administration (Subject A)", "format": "in vivo, human", "description": "To determine the physiological and subjective effects of the hydrochloride salt of R-MDMA (oral administration, 250 (±) 10 mg), supplemented with acetyl-L-carnitine (ALCAR), alpha lipoic acid (ALA), ascorbate to reduce or prevent neurotoxicity.\n2.2 g of racemic MDMA was obtained and dissolved in methanol at a stock concentration of 10 mg/mL. A ChiralPak Ad-H column (150×4.6 mm, 5 μm particle size) was flushed with mobile phase solution on an Agilent 1260 machine with a variable UV-Vis detector and 10 uL of the final concentrated solution (1:100) was injected on a 35 min run cycle. Due to the preliminary nature of the testing, no further characterization was done. The laevo-rich form was the first eluted. It was collected and roto-evaporated into solid form and then dried over magnesium pellets. The product, when dried and washed thoroughly, was sent out for anonymized 1H-NMR testing to determine identity.\nVitals were taken hourly, and were taken four times between hours two and three. Heart rate rose for a short period to 115-125 from 85 resting.\nMDMA enantiomers were recombined in a 9:1 ratio through crystallization and washing."}, "[11]": {"conditions": "cited from earlier work; for Fear behavior during the fear extinction session: during extinction training; for Conditioned fear when retention of extinction was assessed: the following day"}, "CYP2D6": {"molecular_target": "CYP2D6 (Homo sapiens, UniProt P10635)", "sequence (P10635 whole entry)": "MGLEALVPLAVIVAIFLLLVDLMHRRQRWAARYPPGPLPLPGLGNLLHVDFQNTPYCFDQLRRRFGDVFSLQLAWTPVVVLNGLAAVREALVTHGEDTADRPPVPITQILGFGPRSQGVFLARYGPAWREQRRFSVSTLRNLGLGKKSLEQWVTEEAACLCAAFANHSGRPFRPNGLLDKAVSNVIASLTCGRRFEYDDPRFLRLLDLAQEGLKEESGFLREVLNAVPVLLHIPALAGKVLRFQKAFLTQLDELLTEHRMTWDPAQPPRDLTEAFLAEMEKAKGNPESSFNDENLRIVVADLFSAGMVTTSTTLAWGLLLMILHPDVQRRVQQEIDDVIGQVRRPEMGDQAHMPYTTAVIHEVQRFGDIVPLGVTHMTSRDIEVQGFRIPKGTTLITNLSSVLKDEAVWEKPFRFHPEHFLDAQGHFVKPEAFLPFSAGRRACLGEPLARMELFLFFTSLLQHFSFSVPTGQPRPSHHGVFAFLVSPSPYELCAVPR", "conditions": "cited from earlier work"}, "[12]": {"test": "No adverse effect level (NOAEL) in rat, p.o.", "conditions": "in vivo, po"}, "[13]": {"test": "Maximum Recommended Starting Dose (MRSD) and doses tested in humans", "conditions": "expected value"}, "CYP2C19": {"molecular_target": "CYP2C19 (Homo sapiens, UniProt P33261)", "sequence (P33261 whole entry)": "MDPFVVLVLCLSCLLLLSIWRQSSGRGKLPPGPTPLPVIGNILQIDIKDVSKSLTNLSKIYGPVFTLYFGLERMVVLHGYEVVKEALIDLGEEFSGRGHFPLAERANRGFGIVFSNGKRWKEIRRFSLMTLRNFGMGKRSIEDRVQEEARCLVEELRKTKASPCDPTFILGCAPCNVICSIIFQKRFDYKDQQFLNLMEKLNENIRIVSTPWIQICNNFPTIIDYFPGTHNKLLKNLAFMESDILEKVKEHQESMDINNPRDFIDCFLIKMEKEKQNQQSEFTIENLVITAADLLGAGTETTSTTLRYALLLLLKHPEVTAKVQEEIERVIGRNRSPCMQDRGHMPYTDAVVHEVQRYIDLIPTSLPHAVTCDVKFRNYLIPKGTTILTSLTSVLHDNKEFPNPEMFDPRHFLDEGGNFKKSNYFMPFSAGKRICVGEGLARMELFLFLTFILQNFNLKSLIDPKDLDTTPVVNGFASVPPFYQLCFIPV", "conditions": "cited from earlier work"}, "[14]": {"conditions": "100 mg, healthy volunteers, brain imaging studies"}}, "note": "Entries after “also recorded” stand apart in the source; their conditions may differ. Where two headings read alike, the source gives them in different places."}
{"smiles": "CNC(C)Cc1ccc2c(c1)OCO2", "note": "(stereo not drawn) [MDMA, 3,4-methylenedioxymethamphetamine]", "values": [{"measurement": "Neurotoxicology NOAEL", "setting": "[1]", "value": 4, "unit": "mg/kg/week p.o"}, {"measurement": "Duration of subjective effects", "setting": "[2]; [14]", "value": "approximately 4.5 hours"}, {"measurement": "Time of peak subjective effects", "setting": "[2]; [14]", "value": 100, "unit": "min"}, {"measurement": "Duration of effects", "setting": "[2]; patients with PTSD receiving one dose", "value": "4 to 5", "unit": "h"}, {"measurement": "Onset of action after the initial dose", "setting": "[2]; patients with PTSD, 100-125 mg", "value": "45 to 75", "unit": "min"}, {"measurement": "Time of peak drug effects", "setting": "[2]; patients with PTSD, 100-125 mg", "value": "2 to 5", "unit": "h"}, {"measurement": "Duration of effects", "setting": "[2]; patients with PTSD, with the booster dose", "value": "5 to 6", "unit": "h"}, {"measurement": "Decrease of subjective effects to baseline values", "setting": "[2]; prior study (Harris et al.)", "value": "5 to 6", "unit": "h"}, {"measurement": "Onset of subjective effects", "setting": "[2]; prior study (Harris et al.)", "value": "approximately 45 mins"}, {"measurement": "Peak of subjective effects", "setting": "[2]; prior study (Harris et al.)", "value": "1.5 to 2", "unit": "h"}, {"measurement": "Human Equivalent Dose (HED): NOAEL (human)", "setting": "[3]; 9:1 R:S MDMA: expected, p.o.", "value": 34, "unit": "mg/kg →"}, {"measurement": "Human Equivalent Dose (HED): Neurotoxicology NOAEL (human)", "setting": "[3]; 9:1 R:S MDMA: i.v.", "value": "NOAEL (human): 6 mg/kg"}, {"measurement": "Human Equivalent Dose (HED): NOAEL (human), total dose", "setting": "[3]; 9:1 R:S MDMA: expected, p.o.", "value": 2080, "unit": "mg"}, {"measurement": "Human Equivalent Dose (HED): Neurotoxicology NOAEL (human), total dose", "setting": "[3]; 9:1 R:S MDMA: i.v.", "value": 342.9, "unit": "mg*"}, {"measurement": "Neurotoxicology NOAEL", "setting": "[4]; female, p.o.", "value": 25, "unit": "mg/kg/week p.o1"}, {"measurement": "Neurotoxicology NOAEL", "setting": "[4]; male, p.o.", "value": 20, "unit": "mg/kg/week p.o1."}, {"measurement": "Serotonergic presynaptic markers", "setting": "[5]", "value": "profound reductions in all three serotonergic presynaptic markers"}, {"measurement": "Critical period peak", "setting": "[6]", "value": 40, "unit": "h"}, {"measurement": "Critical period starts to open, time after the acute dose", "setting": "[6]", "value": "about six"}, {"measurement": "No adverse effect level (NOAEL)", "setting": "[7]", "value": "NOAEL: 15 mg/kg in"}, {"measurement": "No adverse effect level (NOAEL)", "setting": "[8]", "value": "NOAEL: 100 mg/kg"}, {"measurement": "Elimination half-life", "setting": "[9]; doses ranging from 50-125 mg", "value": "7 to 9", "unit": "h"}, {"measurement": "Time to peak plasma concentration", "setting": "[9]; humans, doses 100-125 mg", "value": "2 to 3", "unit": "h"}]}
{"smiles": "CN[C@H](C)Cc1ccc2c(c1)OCO2", "note": "[R-MDMA, (R)-1-(1,3-Benzodioxol-5-yl)-N-methylpropan-2-amine]", "values": [{"measurement": "Duration of the whole experience", "setting": "[10]; R-MDMA HCl 250 (±) 10 mg oral", "value": "approximately 7 hours"}, {"measurement": "Peak of the experience, time after ingestion", "setting": "[10]; R-MDMA HCl 250 (±) 10 mg oral", "value": "around two"}, {"measurement": "Start of come-down", "setting": "[10]; R-MDMA HCl 250 (±) 10 mg oral", "value": "~4", "unit": "h"}, {"measurement": "Start of noticeable effects off-baseline", "setting": "[10]; R-MDMA HCl 250 (±) 10 mg oral", "value": "around 40 minutes"}, {"measurement": "Blood pressure", "setting": "[10]; R-MDMA HCl 250 (±) 10 mg oral, monitor of low precision, result inconclusive", "value": "increased for a short period"}, {"measurement": "Hyperthermia or hypothermia", "setting": "[10]; single oral dose, Subject A", "value": "No noticeable hyperthermia or hypothermia"}, {"measurement": "Jaw clenching", "setting": "[10]; single oral dose, Subject A", "value": "No incidence of jaw clenching"}, {"measurement": "Stimulant effects compared with racemic MDMA", "setting": "[10]; single oral dose, Subject A", "value": "almost entirely absent; also recorded: reduction in stimulation"}, {"measurement": "Heart rate", "setting": "[10]; single oral dose, Subject A, R-MDMA HCl 250 (±) 10 mg with supplements (rise from 85 resting), 9:1 R:S MDMA 230-240 mg", "value": "115-125"}, {"measurement": "Human Equivalent Dose (HED): NOAEL (human), total dose", "setting": "[3]; 9:1 R:S MDMA: expected, p.o.", "value": "mg/kg → >4100"}, {"measurement": "Human Equivalent Dose (HED): Neurotoxicology NOAEL (human), total dose", "setting": "[3]; 9:1 R:S MDMA: i.v.", "value": 450, "unit": "mg*"}, {"measurement": "NOAEL", "setting": "[3]", "value": "> 68", "unit": "mg/kg"}, {"measurement": "Neurotoxicology NOAEL", "setting": "[4]; i.v.", "value": 50, "unit": "mg/kg i.v2"}, {"measurement": "No adverse effect level (NOAEL)", "setting": "[8]", "value": "NOAEL: >200 mg/kg"}, {"measurement": "AUC in comparison to S-MDMA", "setting": "[9]; in vivo", "value": "increased AUC"}, {"measurement": "Half-life in comparison to S-MDMA", "setting": "[9]; in vivo", "value": "longer half-life"}, {"measurement": "Fear behavior during the fear extinction session", "setting": "[11]", "value": "did not reduce fear behavior"}, {"measurement": "Conditioned fear when retention of extinction was assessed", "setting": "[11]", "value": "significantly reduced conditioned fear"}]}
{"smiles": "CN[C@@H](C)Cc1ccc2c(c1)OCO2", "note": "[S-MDMA, (S)-1-(1,3-Benzodioxol-5-yl)-N-methylpropan-2-amine]", "values": [{"measurement": "Affinity for CYP2D6 compared with the other enantiomer", "setting": "CYP2D6", "value": "higher affinity"}, {"measurement": "NOAEL", "setting": "[12]", "value": "< 100", "unit": "mg/kg"}, {"measurement": "Human Equivalent Dose (HED): NOAEL (human), total dose", "setting": "[3]; 9:1 R:S MDMA: expected, p.o.", "value": "mg/kg → <2080"}, {"measurement": "Human Equivalent Dose (HED): Neurotoxicology NOAEL (human), total dose", "setting": "[3]; 9:1 R:S MDMA: i.v.", "value": 342.9, "unit": "mg*"}, {"measurement": "NOAEL", "setting": "[3]", "value": "< 34", "unit": "mg/kg"}, {"measurement": "Neurotoxicology NOAEL", "setting": "[4]; i.v.", "value": "20 mg/kg i.v2,3"}, {"measurement": "Expected MSRD", "setting": "[13]", "value": 150, "unit": "mg"}, {"measurement": "Fear behavior during the fear extinction session", "setting": "[11]", "value": "reduced conditioned fear behavior"}, {"measurement": "Conditioned fear when retention of extinction was assessed", "setting": "[11]", "value": "a reduction thereof was not observed"}, {"measurement": "Metabolism by CYP2C19, enantiomer preference", "setting": "CYP2C19", "value": "preferentially metabolizes"}]}
